Results published in PubChem BioAssay (NCI).
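Assay format: 96-well plates, 48-hour exposure. Here, GI50 denotes the concentration required for 50% inhibition of growth. At the TGI there is no net growth.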

Assays:
Assay in all cases: growth of human tumour cells (NCI), 48 h
SK-MEL-5 melanoma = test system: SK-MEL-5 melanoma
NCI-H23 lung = test system: NCI-H23 lung
EKVX NSCLC = test system: EKVX NSCLC
UACC-62 melanoma = test system: UACC-62 melanoma
SW-620 colon = test system: SW-620 colon
RPMI-8226 leukemia = test system: RPMI-8226 leukemia
CCRF-CEM leukemia = test system: CCRF-CEM leukemia
KM12 colon = test system: KM12 colon
BT-549 breast = test system: BT-549 breast
A549 NSCLC = test system: A549 NSCLC

Row | Structure (SMILES) | TGI (SK-MEL-5 melanoma) [µM] | TGI (NCI-H23 lung) [µM] | TGI (EKVX NSCLC) [µM] | TGI (UACC-62 melanoma) [µM] | TGI (SW-620 colon) [µM] | TGI (RPMI-8226 leukemia) [µM] | TGI (CCRF-CEM leukemia) [µM] | TGI (KM12 colon) [µM] | TGI (BT-549 breast) [µM] | TGI (A549 NSCLC) [µM] | GI50 (SK-MEL-5 melanoma) [µM] | GI50 (UACC-62 melanoma) [µM] | GI50 (BT-549 breast) [µM] | GI50 (A549 NSCLC) [µM]
1 | COc1cc2c(cc1OC)C(C1(O)CCCCC1)NCC2 (stereo not drawn) | > 100 | > 100 | > 100 | > 100 | > 100 | > 100 | > 100 | > 100 |  |  |  |  |  | 
2 | N=C(N)SC1c2ccccc2-c2cc([N+](=O)[O-])ccc21 (stereo not drawn) | 10.6 | 18.3 | 29 | 10.1 | 22.1 | 30.1 | 20.3 | 11.4 | 19.3 | 19.4 |  |  |  | 
3 | Cc1ccc(NCCN(C)CC(C)O)c2c(=O)c3ccc(Cl)cc3sc12 (stereo not drawn) | 3.01 |  |  | 3.48 |  |  |  |  | > 100 | > 100 | 1.65 | 1.85 | 5.14 | 4.08
4 | Cc1nnc2sc(-c3ccc(N)cc3)nn12 | > 100 | > 100 | > 100 | > 100 | > 100 | > 100 | > 100 | > 100 |  | > 100 |  |  |  | 
5 | Nc1nc(Cl)cc(NCCCCO)n1 | > 100 | > 100 | > 100 | > 100 | > 100 | > 100 | > 100 | > 100 |  | > 100 |  |  |  | 
6 | O=S(=O)(O)c1cc(O)c2c(O)c(N=Nc3ccc(/C=C/c4ccc(N=Nc5c(S(=O)(=O)O)cc6cc(S(=O)(=O)O)cc(O)c6c5O)cc4S(=O)(=O)O)c(S(=O)(=O)O)c3)c(S(=O)(=O)O)cc2c1 | > 100 | > 100 | > 100 | > 100 | > 100 | > 100 | > 100 | > 100 |  | > 100 |  |  |  | 
